From patent publication US20180251495A1, “Skin-Penetrating Peptides and Compositions and Methods of Use Thereof” (The Regents of the University of California, priority 2015, published 2018)
Like-named read-outs stand apart in the source and are kept apart here. Where a SMILES comes first, the peptide text is derived from it. Bridges are numbered along the chain shown (N, C = ends). Where no end group is shown, it is not given here.

Assays:
[1] = system: HEKa cells (human adult epidermal keratinocytes); assay: MTT cytotoxicity assessment in keratinocytes; type: cell-based; conditions: overnight incubation, MTT
Method: (§1) HEKa cells were cultured in 1× keratinocyte Serum-Free Medium supplemented with 25 U/mL penicillin, 25 μg/mL streptomycin, and 50 μg/mL neomycin. Cultures were grown at 37° C. with 5% CO2. The cytotoxicity of SPPs was assessed using the MTT Cell Proliferation Assay (ATCC, Manassas, Va.). HEKa cells were seeded in 96-well microplates (Corning Inc., Corning, N.Y.) at a density of 5000 cells/well. Cultures were allowed to grow until they reached ˜80% confluency. Cells were then incubated with 200 μL of 10, 5, or 2.5 mg/mL of selected SPPs in media. The pH was adjusted to afford complete dissolution of peptides. Media only was used as a negative control, and media or SPP formulations without cells was used to subtract background. Cytotoxicity was assessed after overnight incubation. Viability was determined according to the manufacturer's recommended protocol using a SAFIRE, XFLUOR4, V4.50 microplate reader (Tecan Group Ltd, Morrisville, N.Y.).
(§2) To assess the potential for skin toxicity, SPPs were incubated with HEKa cells overnight and % viability was determined. HEKa cells were used since keratinocytes are the primary cell-type in the skin, and therefore, represent a good estimate of the potential for skin irritation.

[2] = In vitro skin permeation of radiolabelled SPPs in Franz diffusion cells; type: in vitro ADME, porcine
Method: Test formulations were loaded and incubated as described.
The skin penetrating ability of the selected heptamer (SP7-1 through SP7-5) SPPs was evaluated in comparison with SPACE™. […] Radiolabelled peptides were loaded on Franz diffusion cells (FDCs) and incubated at 37° C. with moderate stirring. After 24 hours, the various skin layers were harvested, dissolved and analyzed using a scintillation counter to determine the amount of peptide.

[3] = for solubility in PBS: PBS pH 8.0
[4] = MTT cytotoxicity assessment in keratinocytes; type: cell-based, human; conditions: human, HEKa cells (adult epidermal keratinocytes); HEKa cells exposed to 5 mg/mL peptide in solution
Method: as §1, §2

human keratin (human) [5] = assay: batch adsorption isotherm (affinity chromatography): peptide coupled to Toyopearl AF-Epoxy-650 resin, human keratin in PBS pH 7.4 in solution, Langmuir fit
human keratin (human) [6] = assay: batch affinity chromatography, peptide on Toyopearl resin, human keratin in solution, Langmuir fit
[7] = peptide amount after 24 hours, 37° C.

Molecule | Kd (human keratin (human) [5]) [µg/mL] | Experimental Qmax (human keratin (human) [6]) [mg/mL resin] | Kd (human keratin (human) [6]) [µM] | toxicity to HEKa cells [1] | Skin permeation, Dermis [2, 7] [μg/cm^2] | Skin permeation, Receptor [2, 7] [μg/cm^2] | Skin permeation, SC + Epidermis [2, 7] [μg/cm^2] | other results
C[C@H](N)C(=O)N[C@H]1CSSC[C@@H](C(=O)NCC(=O)O)NC(=O)[C@H](CC(N)=O)NC(=O)[C@H](CCCNC(=N)N)NC(=O)CNC(=O)[C@H]([C@@H](C)O)NC(=O)[C@H](Cc2c[nH]cn2)NC(=O)[C@H]([C@@H](C)O)NC1=O [SP6-1, ACTHTGRNCG] (H-ACTHTGRNCG-OH; disulfide 2-9; N-terminus and C-terminus assumed) |  |  |  | no observable toxicity |  |  |  | toxicity to HEKa cells ([1]; listed as hexamer): non-toxic at concentrations as high as 10 mg/mL
CC(C)C[C@@H]1NC(=O)[C@H]([C@@H](C)O)NC(=O)[C@H](C)NC(=O)[C@H](CO)NC(=O)[C@@H](NC(=O)[C@H](C)N)CSSC[C@@H](C(=O)NCC(=O)O)NC(=O)[C@H](CO)NC(=O)[C@H](Cc2c[nH]cn2)NC(=O)[C@H](CCC(N)=O)NC1=O [SP7-1, ACSATLQHSCG] (H-ACSATLQHSCG-OH; disulfide 2-10; N-terminus and C-terminus assumed) |  |  |  | only toxic when at 10 mg/mL | 149.7 ± 5.6 | 42.4 ± 8.5 | 819.2 ± 62.2 | pH adjusted to achieve complete solubility ([3]; PBS): 8.5
CC(C)C[C@@H]1NC(=O)[C@H](CO)NC(=O)[C@@H](NC(=O)[C@H](C)N)CSSC[C@@H](C(=O)NCC(=O)O)NC(=O)[C@H](CC(N)=O)NC(=O)[C@H](Cc2c[nH]c3ccccc23)NC(=O)[C@H](CC(N)=O)NC(=O)[C@H](C(C)C)NC(=O)[C@H]([C@@H](C)O)NC1=O [SP7-2, ACSLTVNWNCG] (H-ACSLTVNWNCG-OH; disulfide 2-10; N-terminus and C-terminus assumed) |  |  |  |  | 166.7 ± 45.2 | 65.0 ± 14.1 | 774.0 ± 110.2 | toxicity to HEKa cells ([1]; listed as SP-2): some toxicity for all concentrations tested, however, the results were not statistically significant; solubility in PBS [3]: did not give any solubility problems
CC(C)C[C@@H]1NC(=O)[C@@H](NC(=O)[C@H](C)N)CSSC[C@@H](C(=O)NCC(=O)O)NC(=O)[C@H](C)NC(=O)[C@H](CC(N)=O)NC(=O)[C@H](Cc2c[nH]cn2)NC(=O)[C@H](CC(N)=O)NC(=O)[C@H](C(C)C)NC(=O)[C@H](CO)NC1=O [SP7-3, ACLSVNHNACG] (H-ACLSVNHNACG-OH; disulfide 2-10; N-terminus and C-terminus assumed) |  |  |  | significantly toxic (p <0.001) at only 1 mg/mL | 39.5 ± 25.4 | 16.9 ± 11.3 | 759.9 ± 73.4 | solubility in presence of CsA ([3]; in presence of CsA): could not be fully solubilized
C[C@H](N)C(=O)N[C@H]1CSSC[C@@H](C(=O)NCC(=O)O)NC(=O)[C@H](C)NC(=O)[C@H](CC(N)=O)NC(=O)[C@H](CCCNC(=N)N)NC(=O)CNC(=O)[C@H]([C@@H](C)O)NC(=O)[C@H](CO)NC(=O)[C@H]([C@@H](C)O)NC1=O [SP7-4, ACTSTGRNACG] (H-ACTSTGRNACG-OH; disulfide 2-10; N-terminus and C-terminus assumed) |  |  |  | significantly toxic (p <0.001) at only 1 mg/mL | 53.7 ± 31.1 | 19.8 ± 19.8 | 545.2 ± 79.1 | solubility in PBS [3]: did not give any solubility problems
C[C@H](N)C(=O)N[C@H]1CSSC[C@@H](C(=O)NCC(=O)O)NC(=O)[C@H](CC(N)=O)NC(=O)[C@H](Cc2c[nH]cn2)NC(=O)[C@H](CC(N)=O)NC(=O)[C@H]([C@@H](C)O)NC(=O)[C@H](CO)NC(=O)[C@H](C)NC(=O)[C@H](CO)NC1=O [SP7-5, ACSASTNHNCG] (H-ACSASTNHNCG-OH; disulfide 2-10; N-terminus and C-terminus assumed) |  |  |  | significantly toxic (p <0.001) at only 1 mg/mL | 124.3 ± 28.2 | 39.5 ± 8.5 | 759.9 ± 62.1 | viability at 5000 µg/mL [4]: 60.1 ± 2.6%; solubility in PBS [3]: did not give any solubility problems
C[C@H](N)C(=O)N[C@H]1CSSC[C@@H](C(=O)NCC(=O)O)NC(=O)[C@H]([C@@H](C)O)NC(=O)[C@H](CO)NC(=O)[C@H](CCCNC(=N)N)NC(=O)[C@H](C)NC(=O)[C@H](CCC(N)=O)NC(=O)[C@H](Cc2c[nH]cn2)NC(=O)[C@H](C)NC(=O)[C@H](CC(N)=O)NC1=O [SP8-1, ACNAHQARSTCG] (H-ACNAHQARSTCG-OH; disulfide 2-11; N-terminus and C-terminus assumed) |  |  |  | no observable toxicity |  |  |  | toxicity to HEKa cells ([1]; listed as octamer): non-toxic at concentrations as high as 10 mg/mL
C[C@H](N)C(=O)N[C@H]1CSSC[C@@H](C(=O)NCC(=O)O)NC(=O)[C@H](CCC(N)=O)NC(=O)[C@H](Cc2c[nH]cn2)NC(=O)[C@H](CCC(N)=O)NC(=O)[C@H]([C@@H](C)O)NC(=O)[C@H](CO)NC(=O)CNC(=O)[C@H]([C@@H](C)O)NC1=O [SPACE™, ACTGSTQHQCG, reference compound] (H-ACTGSTQHQCG-OH; disulfide 2-10; N-terminus and C-terminus assumed) |  |  |  |  |  |  |  | viability at 5000 µg/mL [4]: 99.4 ± 3.9%; Skin permeation, Dermis [2]: 200.6 ± 59.3 μg/cm^2; Skin permeation, Receptor [2]: 96.0 ± 31.1 μg/cm^2; Skin permeation, SC + Epidermis [2]: 782.5 ± 84.7 μg/cm^2

Second part, led by results:

Kd (human keratin (human) [5]) [µg/mL] | Experimental Qmax (human keratin (human) [6]) [mg/mL resin] | Kd (human keratin (human) [6]) [µM] | Molecule | toxicity to HEKa cells [1] | Skin permeation, Dermis [2, 7] [μg/cm^2] | Skin permeation, Receptor [2, 7] [μg/cm^2] | Skin permeation, SC + Epidermis [2, 7] [μg/cm^2] | other results
393 | 4.09 | 8.73 | ACSLTVNWNCG (disulfide 2-10 (inferred)) [SP7-2 (…)] |  |  |  |  | 
716 | 3.43 | 15.8 | ACTSTGRNACG (disulfide 2-10 (inferred)) [SP7-4 (…)] |  |  |  |  | 
423 | 4.07 | 9.4 | ACLSVNHNACG (disulfide 2-10 (inferred)) [SP7-3 (…)] |  |  |  |  | 
361 | 4.16 | 8.02 | ACSATLQHSCG (disulfide 2-10 (inferred)) [SP7-1 (…)] |  |  |  |  | 
477 | 3.98 | 10.6 | ACTGSTQHQCG (disulfide 2-10 (inferred)) [SPACE™ peptide (…)] |  |  |  |  | 
456 | 4.01 | 10.1 | ACSASTNHNCG (disulfide 2-10 (inferred)) [SP7-5 (…)] |  |  |  |  | 
